In PubChem BioAssay AID179 (DTP/NCI, 2004):
“And” between values parts separate entries of the source, which are not always exact repeats. Equal entries are not always repeated. The source made the active and inactive calls.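 How the source made its calls: active means compounds giving half or more protection of infected cells from virus-caused growth loss, again on retest; inactive means the rest.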

System: CEM cells HIV-1 protection, formazan growth assay
Assay: NCI AIDS Antiviral Assay
Settings: for IC50: measured here: growth of uninfected CEM cells
Method in brief: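 Human CEM cells, uninfected and HIV-1-infected, received five drug concentrations, and growth was read by soluble formazan assay. Compounds giving at least 50% protection were retested; reproducible 100% protection defined confirmed active.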

SMILES | outcome | EC50 [µM] | IC50
C[C@]12CC(O)C3[C@@H](CC=C4CC(O)CC[C@@]43C)C1CCC2O (some centres undefined) | inactive |  | 
C[C@]12Cc3conc3C(O)=C1CC[C@@H]1C2CC[C@@]2(C)C1CC[C@]2(C)O (some centres undefined) | inactive |  | 
CCCCCCCCC1=C(OC)C(=O)c2c(C)ccnc2C1=O | inactive |  | 
CCN1CCC(O)(c2ccc(Oc3ccc(C)cc3)cc2)C(C(=O)c2ccc(Oc3ccc(C)cc3)cc2)C1 (centres undefined) |  | > 200 | 3.8 µM
O=S(=O)([O-])C(F)(F)F.[Ru+2].[Ru+2].c1ccc2c(c1)Cc1ccccc1-2 |  | > 100 | > 100 µM
CCCSc1nc(-c2ccc(OC)cc2)c(C#N)c(=O)n1C1OC(COC(C)=O)C(OC(C)=O)C(OC(C)=O)C1OC(C)=O (centres undefined) |  | > 200 | > 200 µM
COC(=O)c1nc2[nH]n(-c3ccccc3)c(=O)c2c2c1CCCCCCCCCC2 |  | > 123 | 115 µM
CCN1CN(c2ccccc2)C2(CCN(CC(CC3OCCO3)c3ccc(F)cc3)CC2)C1=O (centres undefined) |  | > 200 | 7.24 µM
O=S(=O)(O)SCCCNCCCCCCCCNCCCSS(=O)(=O)O |  | > 200 | 10 µM
COC(=O)/C=C(\C(=O)OC)c1c2c3c(cc(OC)c(OC)c3c3ccccc13)CCN2C | inactive |  | 
CC(O)CC[P+](c1ccccc1)(c1ccccc1)c1ccccc1 (centres undefined) |  | > 200 | 4.27 µM
COC(=O)C12CCC(C(=O)OC)(Cc3c(c4ccccc4n3S(=O)(=O)c3ccccc3)C1)C2=O (centres undefined) |  | > 200 | 85.1 µM
N#Cc1c(NC(=S)Nc2ccccc2)sc2c1CCCC2 |  | > 200 | > 200 µM
CN(C)CCSc1cccc(-c2cc(-c3cccs3)nc(SCCN(C)C)n2)c1 |  | > 282 | 2.24 µM
Nc1ccn(CCOC(=O)c2ccccc2)c(=O)n1 |  | > 52.5 | > 52.5 µM
CC1=CC(=O)Nc2ccccc2S1 |  | > 234 | 85.1 µM
O=C(O)c1ccccc1CC1Cc2ccc3c(c2C1=O)CCC3 (centres undefined) |  | > 200 | 112 µM
Cc1ccnc(NS(=O)(=O)c2ccc(N=Nc3c(N)n(C)c(=O)n(C)c3=O)cc2)n1 | inactive |  | 
Cc1ccc(N2CC(O)CSC2=Nc2ccccc2)cc1 (centres undefined) |  | > 112 | 46.8 µM
O=C1CCCC2=C1CC1=C(CCCC1=O)N2c1ccc([N+](=O)[O-])cc1 |  | > 200 | > 200 µM
Cc1cccc(-n2c(=S)[nH]c3c(sc(=O)n3-c3ccccc3C)c2=O)c1 |  | > 2 | > 2 µM

SMILES | outcome | EC50 [µM] | IC50
COC(=O)N1[C@H]2Cc3c(OC)c(C)c(OC)c(OC)c3[C@@H]1/C(=C\c1cc(OC)c(OC)c(C)c1OC)N(Cc1ccccc1)C2=O | inactive |  | 
Cn1c(=O)c2c(ncn2CCCCn2ccnc2[N+](=O)[O-])n(C)c1=O |  | > 200 | > 200 µM
CC(=O)O[C@@H]1CCN(Cc2ccccc2)C[C@@H]1CN(C(C)=O)C12CC3CC(CC(C3)C1)C2 |  | > 8.51 | 8.32 µM
Cc1nc2c(c(N3CCN(C)CC3)n1)Cc1ccccc1-2 |  | > 200 | 41.7 µM
CCCCCC(C(O)C#N)C(O)(C(F)(F)F)C(F)(F)F (centres undefined) |  | > 200 | 52.5 µM
COC(=O)[C@@]12CCCC(=O)[C@@H]1[C@H]1CCC[C@H]12 |  | 112 | > 200 µM
CC1(C)CC[P+](CC[P+]2(c3ccccc3)CCC(C)(C)c3ccccc32)(c2ccccc2)c2ccccc21 (centres undefined) |  | > 407 | 64.6 µM
COc1ccccc1N1CCN(Cn2c(=O)oc3cccnc32)CC1 |  | > 200 | 60.3 µM
C=CC1(c2ccc3ccccc3c2)OCC(CC)O1 (centres undefined) |  | > 200 | 87.1 µM
CCn1c(=O)c2c3cc(OC(C)=O)ccc3oc2c2ccc(OC(C)=O)cc21 |  | > 200 | 53.7 µM
CC1(C)OC2C(=O)C=C(COCc3ccccc3)C2O1 (centres undefined) |  | > 200 | 28.2 µM and 10 µM
O=C1CC2(CCC(O)(c3cccs3)C(C(=O)c3cccs3)C2)C(=O)c2ccccc2N1 (centres undefined) |  | > 200 | > 200 µM
Cc1nc2c(=O)[nH]ncc2[nH]1 |  | > 200 | > 200 µM
NC1=NN(c2ccccc2)C2(c3ccncc3C(=O)O)C1C(N)=NN2c1ccccc1 (centres undefined) |  | > 200 | > 200 µM
CCSc1[nH]c(NC(=NC(C)C)NC(=O)c2ccccc2)c(C(N)=O)c1C(N)=O | inactive |  | 
CCCc1cc(=O)oc2c3c(c4c(c12)OC(C)(C)C=C4)O[C@H](C)[C@@H](C)[C@H]3O |  | > 58.9 | 17.8 µM
Cc1ccc(S(=O)(=O)N2CCCN(S(=O)(=O)c3ccc(C)cc3)CCSCCCSCC2)cc1 |  | > 200 | 31.6 µM
CCCCCCCCCCCCCCCc1ncc(C)[nH]1 |  | > 24.5 | > 24.5 µM
Cc1[nH]c2ccccc2c1C1Cc2ccccc2N1C(=O)/C=C/C=C/c1ccccc1 (centres undefined) |  | > 9.33 | > 9.33 µM
CCCCCC1c2c(cc(C)[nH]c2=O)OC(O)C1CCCC (centres undefined) |  | > 126 | > 126 µM
Cc1nc2cn3c(c2c(=O)[nH]1)CCCCC3 |  | > 200 | > 200 µM

SMILES | outcome | EC50 [µM] | IC50
O=C1NC(=O)C(SSC2C(=O)NC(=O)NC2=O)C(=O)N1 |  | > 200 | > 200 µM
O=C1Nc2cc([N+](=O)[O-])ccc2C(=O)N2CCC[C@@H]12 |  | > 200 | > 200 µM
O=C(O)c1ccccc1C(c1cc(Br)c(O)c(Br)c1)c1cc(Br)c(O)c(Br)c1 | inactive |  | 
Cc1ccc(-c2cn3c(nc4ccccc43)c(-c3ccccc3)n2)cc1 |  | > 200 | 174 µM
O=C1NC(=O)[C@@]2(CC[C@@H](O)C2)c2ccncc21 |  | > 562 | 447 µM
Cc1cc2cccc(Cl)c2nc1C(=O)c1ccccc1 |  | > 6.61 | > 6.61 µM
COc1ccc2c(c1)CC1c3c(cc4c(c3-2)OCO4)CCN1C (centres undefined) |  | > 589 | 3.31 µM
Cn1cc(N)cc1C(=O)Nc1ccc(S(=O)(=O)O)c2cc(S(=O)(=O)O)ccc12 |  | > 490 | > 490 µM
CCOP(=O)(OCC)Oc1c(OC)c2[nH]c(C(=O)OC)cc2c2c(C(=O)O)c[nH]c12 |  | > 200 | > 200 µM
CC(=O)C[P+](c1ccccc1)(c1ccccc1)c1ccccc1 |  | > 200 | 61.7 µM
COc1ccc(C(=O)O/N=C2\CCCC\C2=C/c2ccccc2)cc1 | inactive |  | 
CCCCN1C(=O)[C@@H]2[C@H](c3ccccc3O)C(c3ccccc3O)[C@@H]2C1=O (some centres undefined) |  | > 138 | 30.2 µM
O=C(/C(=N/Nc1ccc([N+](=O)[O-])cc1)c1ccccc1)c1ccccc1 | inactive |  | 
Cn1c(=O)c([N+](=O)[O-])c2[nH]ncn2c1=O |  | > 200 | > 200 µM
Cc1cn(C2CC(N(O)C3C4CC5CC(C4)CC3C5)C(CO)O2)c(=O)[nH]c1=O (centres undefined) |  | > 200 | 120 µM
c1ccc2c(c1)[nH]c1c2nc2ccccn21 | inactive | > 1020 | > 1020 µM
COC(=O)N1C2CCCCC2=NN(c2ccccc2)N1C(=O)OC (centres undefined) |  | > 204 | > 204 µM
O=S(=O)(O)Oc1cc2c(c(OS(=O)(=O)O)c1)C[C@H](OS(=O)(=O)O)[C@@H](c1ccc(OS(=O)(=O)O)c(OS(=O)(=O)O)c1)O2 |  | 91.2 | 174 µM
O=c1ccn(-c2ccccn2)c(=O)n1-c1ccccn1 | inactive |  | 
COC(=O)c1sc(=O)n(-c2ccccc2)c1SCc1ccccc1 |  | > 38 | > 38 µM
